Experimental data published in patent publication US7208450B2, “Pesticidal (dihalopropenyl) phenylalkyl substituted benzoxazole and benzothiazole derivatives” (Bayer CropScience AG, priority 2003, dated 2007).

Experiments:
[1] = tested on: tobacco budworm (Heliothis virescens [Fabricius]); test: surface-treated diet test against tobacco budworm; type: in vivo; conditions: 0.25 millimolar on surface of diet, second instar larvae, five-day exposure; for Percent Growth Inhibition: insect weight relative to untreated controls
Description: The test compounds of formula I are identified by numbers that correspond to those in Table 1.

tobacco budworm = test: foliar treated test against tobacco budworm on chick pea plants; type: in vivo, Heliothis virescens; conditions: sprayed chick pea foliage, 96 hour exposure, dead plus moribund insects
Method: Certain compounds of formula I were tested against tobacco budworm on plant foliage. The foliar treated test against tobacco budworm were conducted in the following manner:
Nine-to-ten day-old chick pea plants (Cicer arietinum) were sprayed at 15 psi to runoff on both upper and lower leaf surfaces with solutions of test compound to provide application rates as high as 1000 ppm of test chemical. The solvent used to prepare the solutions of test compound was 10% acetone or methanol (v/v) and 0.1% of the surfactant octylphenoxypolyethoxyethanol in distilled water. Four replicates, each containing one chick pea plant, for each rate of application of test compound were sprayed. The treated plants were transferred to a hood where they were kept until the spray had dried.
The four chick pea plants for each replicate treated with test compound as described above were removed from their pots by cutting the stems just above the soil line. The excised leaves and stems from the four plants in each replicate were placed in individual 237 mL (8-ounce) paper cups, which contained a moistened filter paper. Five second-instar tobacco budworm (7 days old) were counted into each cup, taking care not to cause injury. An opaque plastic lid was placed on each cup, which was then held in a growth chamber for a 96 hour exposure period at 25° C. 50% relative humidity and photo-period of 12 hours light and 12 hours dark. At the end of the 96 hour exposure period the cups were opened, and the numbers of dead, moribund, and live insects were counted. Using the insect counts, the efficacy of the test compound was expressed in percent control. Percent control is derived from the total number of dead insects (TD) plus the total number of moribund insects (TM) as compared to the total number of insects (TI) in the test:
The condition of the test plants was also observed for phytotoxicity and for reduction of feeding damage as compared to an untreated control.

| SMILES | Percent Mortality [1] [%] | Percent Growth Inhibition [1] [%] | Percent Control of Tobacco Budworm in a Foliar Test (tobacco budworm; 10 ppm) [%] | Percent Control of Tobacco Budworm in a Foliar Test (tobacco budworm; 30 ppm) [%] |
| --- | --- | --- | --- | --- |
| FC(F)(F)c1nc2ccc(OCCCOc3c(Cl)cc(OCC=C(Cl)Cl)cc3Cl)cc2o1 [Compound 3, 5-(3,3-dichloroprop-2-enyloxy)-1,3dichloro-2-{3-[2-(trifluoromethyl)benzoxazol-6-yloxy]propoxy}benzene] | 100 | 100 | 100 | 100 |
| CC1(C)Oc2ccc(OCCCCOc3c(Cl)cc(OCC=C(Cl)Cl)cc3Cl)cc2O1 [Compound 4] | – | – | 15 | 55 |
| FC(F)(F)c1nc2ccc(OCCCCOc3c(Cl)cc(OCC=C(Cl)Cl)cc3Cl)cc2o1 [Compound 6, 5-(3,3-dichloroprop-2-enyloxy)-1,3-dichloro-2-{4-[2-(trifluoromethyl)benzoxazol-6-yloxy]butoxy}benzene] | 100 | 100 | 70 | 95 |
| Cc1nc2cc(OCCCCCOc3c(Cl)cc(OCC=C(Cl)Cl)cc3Cl)ccc2s1 [Compound 12, 5-(3,3-dichloroprop-2-enyloxy)-1,3-dichloro-2-[5-(2-methylbenzothiazol-5-yloxy)pentyloxy]benzene] | 100 | 100 | 15 | – |
